Measured values: ChEMBL document CHEMBL1201862, “PubChem BioAssay data set” (2004)
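Exposure lasted 48 hours, with cells grown in 96-well plates and compounds tested at five concentrations. GI50 marks 50% less growth.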 Activity calls are given as the source filed them. No stated cut-off is given here; in the data, active = GI50 up to about 1.1 µM and inactive = higher.

Tests used:
Assay in all cases: NCI-60 cell line screen, 48 h
[1] = tested on: 786-0
[2] = tested on: A498
[3] = tested on: A549
[4] = tested on: ACHN
[5] = tested on: CAKI-1
[6] = tested on: CCRF-CEM
[7] = tested on: COLO 205
[8] = tested on: DMS-114
[9] = tested on: DMS-273
[10] = tested on: EKVX
[11] = tested on: HCC 2998
[12] = tested on: HCT-116
[13] = tested on: HCT-15
[14] = tested on: HL-60
[15] = tested on: HOP-18
[16] = tested on: HOP-92
[17] = tested on: HT-29
[18] = tested on: IGROV-1
[19] = tested on: K562
[20] = tested on: KM-20L2
[21] = tested on: KM12
[22] = tested on: LOX IMVI
[23] = tested on: LXFL 529
[24] = tested on: M14
[25] = tested on: M19-MEL
[26] = tested on: MOLT-4
[27] = tested on: Malme-3M
[28] = tested on: NCI-H23
[29] = tested on: NCI-H460
[30] = tested on: OVCAR-3
[31] = tested on: OVCAR-4
[32] = tested on: OVCAR-5
[33] = tested on: OVCAR-8
[34] = tested on: RPMI-8226
[35] = tested on: RXF 631
[36] = tested on: SF-268
[37] = tested on: SF-295
[38] = tested on: SF-539
[39] = tested on: SK-MEL-2
[40] = tested on: SK-MEL-5
[41] = tested on: SK-OV-3
[42] = tested on: SN12C
[43] = tested on: SNB-19
[44] = tested on: SNB-75
[45] = tested on: SNB-78
[46] = tested on: SW-620
[47] = tested on: TK-10
[48] = tested on: U-251
[49] = tested on: UACC-62
[50] = tested on: UO-31
[51] = tested on: XF498
[52] = tested on: DLD-1
[53] = tested on: NCI-H522
[54] = tested on: RXF 393
[55] = tested on: SK-MEL-28
[56] = tested on: SR
[57] = tested on: UACC-257
[58] = tested on: HOP-62
[59] = tested on: NCI-H226

## CCCCCCCCCCCCCCCC(=O)OCC1OC(n2cc(F)c(=O)[nH]c2=O)C(NC(=O)OCc2ccccc2)C(O)C1O (stereo not drawn)
[1]
  GI50: 18.7 µM (inactive)
[2]
  GI50: 18.8 µM (inactive)
[3]
  GI50: 18.9 µM (inactive)
[4]
  GI50: 34.1 µM (inactive)
[5]
  GI50: 16.3 µM (inactive)
[6]
  GI50: 11 µM (inactive)
[7]
  GI50: 17.4 µM (inactive)
[8]
  GI50: 14 µM (inactive)
[9]
  GI50: 16.8 µM (inactive)
[10]
  GI50: 22 µM (inactive)
[11]
  GI50: 16.3 µM (inactive)
[12]
  GI50: 16.6 µM (inactive)
[13]
  GI50: 18.5 µM
[14]
  GI50: 20.2 µM (inactive)
[15]
  GI50: 16.8 µM (inactive)
[16]
  GI50: 15.9 µM (inactive)
[17]
  GI50: 17.8 µM (inactive)
[18]
  GI50: 20.9 µM (inactive)
[19]
  GI50: 14.5 µM (inactive)
[20]
  GI50: 22.3 µM (inactive)
[21]
  GI50: 20.8 µM (inactive)
[22]
  GI50: 17.1 µM (inactive)
[23]
  GI50: 16.7 µM (inactive)
[24]
  GI50: 17 µM (inactive)
[25]
  GI50: 20.3 µM (inactive)
[26]
  GI50: 18.2 µM (inactive)
[27]
  GI50: 2.79 µM (inactive)
[28]
  GI50: 18.5 µM (inactive)
[29]
  GI50: 19.2 µM (inactive)
[30]
  GI50: 16.1 µM (inactive)
[31]
  GI50: 20 µM (inactive)
[32]
  GI50: 19.1 µM (inactive)
[33]
  GI50: 17.7 µM (inactive)
[34]
  GI50: 15.7 µM (inactive)
[35]
  GI50: 18.3 µM (inactive)
[36]
  GI50: 23.4 µM (inactive)
[37]
  GI50: 16.9 µM (inactive)
[38]
  GI50: 16.4 µM (inactive)
[39]
  GI50: 16 µM (inactive)
[40]
  GI50: 18.2 µM (inactive)
[41]
  GI50: 24.1 µM (inactive)
[42]
  GI50: 19.9 µM (inactive)
[43]
  GI50: 16.8 µM (inactive)
[44]
  GI50: 19.8 µM (inactive)
[45]
  GI50: 20.6 µM (inactive)
[46]
  GI50: 26.9 µM (inactive)
[47]
  GI50: 19.6 µM (inactive)
[48]
  GI50: 15.9 µM (inactive)
[49]
  GI50: 17.1 µM (inactive)
[50]
  GI50: 19.5 µM (inactive)
[51]
  GI50: 16.3 µM (inactive)

## COC(=O)CCCCCOS(=O)(=O)c1ccc(C)cc1
[1]
  GI50: > 100 µM (inactive)
[2]
  GI50: > 100 µM (inactive)
[3]
  GI50: > 100 µM (inactive)
[4]
  GI50: > 100 µM (inactive)
[6]
  GI50: > 100 µM (inactive)
[7]
  GI50: > 100 µM (inactive)
[52]
  GI50: > 100 µM (inactive)
[8]
  GI50: > 100 µM (inactive)
[9]
  GI50: > 100 µM (inactive)
[10]
  GI50: > 100 µM (inactive)
[11]
  GI50: > 100 µM (inactive)
[12]
  GI50: > 100 µM (inactive)
[13]
  GI50: > 100 µM
[14]
  GI50: > 100 µM (inactive)
[15]
  GI50: > 100 µM (inactive)
[16]
  GI50: > 100 µM (inactive)
[17]
  GI50: > 100 µM (inactive)
[18]
  GI50: > 100 µM (inactive)
[19]
  GI50: > 100 µM (inactive)
[20]
  GI50: > 100 µM (inactive)
[21]
  GI50: > 100 µM (inactive)
[22]
  GI50: > 100 µM (inactive)
[23]
  GI50: > 100 µM (inactive)
[24]
  GI50: > 100 µM (inactive)
[25]
  GI50: > 100 µM (inactive)
[26]
  GI50: 78.7 µM (inactive)
[27]
  GI50: > 100 µM (inactive)
[28]
  GI50: > 100 µM (inactive)
[29]
  GI50: > 100 µM (inactive)
[53]
  GI50: > 100 µM (inactive)
[30]
  GI50: > 100 µM (inactive)
[32]
  GI50: > 100 µM (inactive)
[33]
  GI50: > 100 µM (inactive)
[54]
  GI50: > 100 µM (inactive)
[35]
  GI50: > 100 µM (inactive)
[36]
  GI50: > 100 µM (inactive)
[37]
  GI50: > 100 µM (inactive)
[38]
  GI50: > 100 µM (inactive)
[55]
  GI50: > 100 µM (inactive)
[39]
  GI50: > 100 µM (inactive)
[40]
  GI50: > 100 µM (inactive)
[41]
  GI50: > 100 µM (inactive)
[42]
  GI50: > 100 µM (inactive)
[43]
  GI50: > 100 µM (inactive)
[44]
  GI50: > 100 µM (inactive)
[45]
  GI50: > 100 µM (inactive)
[56]
  GI50: > 100 µM (inactive)
[46]
  GI50: > 100 µM (inactive)
[47]
  GI50: > 100 µM (inactive)
[48]
  GI50: > 100 µM (inactive)
[57]
  GI50: > 100 µM (inactive)
[49]
  GI50: > 100 µM (inactive)
[50]
  GI50: > 100 µM (inactive)
[51]
  GI50: > 100 µM (inactive)

## COc1ccc(CNc2cc(OC)c(OC)c(OC)c2)cc1
[1]
  GI50: 12.2 µM (inactive)
[2]
  GI50: 9.08 µM (inactive)
[3]
  GI50: 6.11 µM (inactive)
[4]
  GI50: 12.1 µM (inactive)
[5]
  GI50: 4.36 µM (inactive)
[6]
  GI50: 4.48 µM (inactive)
[7]
  GI50: 2.84 µM (inactive)
[52]
  GI50: 5.66 µM (inactive)
[8]
  GI50: 3.01 µM (inactive)
[9]
  GI50: 2.09 µM (inactive)
[10]
  GI50: 14.6 µM (inactive)
[11]
  GI50: 6.32 µM (inactive)
[12]
  GI50: 3.37 µM (inactive)
[13]
  GI50: 3.52 µM
[14]
  GI50: 2.67 µM (inactive)
[15]
  GI50: > 21.7 µM (inactive)
[58]
  GI50: 5.57 µM (inactive)
[16]
  GI50: 7.48 µM (inactive)
[17]
  GI50: 3.66 µM (inactive)
[18]
  GI50: 5.89 µM (inactive)
[19]
  GI50: 2.18 µM (inactive)
[20]
  GI50: 2.8 µM (inactive)
[21]
  GI50: 2.25 µM (inactive)
[22]
  GI50: 5.94 µM (inactive)
[23]
  GI50: 7.64 µM (inactive)
[24]
  GI50: 6.82 µM (inactive)
[25]
  GI50: 4.57 µM (inactive)
[26]
  GI50: 3.98 µM (inactive)
[27]
  GI50: 7.03 µM (inactive)
[59]
  GI50: 7.5 µM (inactive)
[28]
  GI50: 6.08 µM (inactive)
[29]
  GI50: 3.47 µM (inactive)
[53]
  GI50: 3.12 µM (inactive)
[30]
  GI50: 3.14 µM (inactive)
[31]
  GI50: 12.4 µM (inactive)
[32]
  GI50: > 25.3 µM (inactive)
[33]
  GI50: 8.99 µM (inactive)
[34]
  GI50: 4.18 µM (inactive)
[54]
  GI50: 5.89 µM (inactive)
[35]
  GI50: 3.47 µM (inactive)
[36]
  GI50: 3.43 µM (inactive)
[37]
  GI50: 4.18 µM (inactive)
[38]
  GI50: 6.21 µM (inactive)
[55]
  GI50: 2.94 µM (inactive)
[39]
  GI50: 2.72 µM (inactive)
[40]
  GI50: 3.35 µM (inactive)
[41]
  GI50: 5.65 µM (inactive)
[42]
  GI50: 7.71 µM (inactive)
[43]
  GI50: 6.85 µM (inactive)
[44]
  GI50: 5.57 µM (inactive)
[45]
  GI50: 4.62 µM (inactive)
[56]
  GI50: 3.25 µM (inactive)
[46]
  GI50: 3.31 µM (inactive)
[48]
  GI50: 3.78 µM (inactive)
[57]
  GI50: 7.21 µM (inactive)
[49]
  GI50: 3.32 µM (inactive)
[50]
  GI50: 10.4 µM (inactive)
[51]
  GI50: 21.3 µM (inactive)
